Our source for the IC50 values is patent US12448433B2, “Human ApoB100 epitopes, methods and uses for modulating inflammatory responses, and treating adverse cardiovascular events, disease and atherosclerosis” (LA JOLLA INSTITUTE FOR ALLERGY AND IMMUNOLOGY, priority 2015, dated 2025).

The target of one assay is DRB1*04:05 (Homo sapiens, UniProt P01903+P01911, A100R/A169T/D86S/F76Y/I96L/K127E/L162R/M171V/N62H/P40V/Q125Y/R42H/S133A/S149N/S66Y/V115G/V209L/W38E). As to the kind of experiment: Peptide binding to HLA-DR allele, competition assay. The text has this: (§1) Peptide binding to MHC-II requires anchor residues in certain positions and thus can be predicted using computer algorithms. Affinity can be measured experimentally using a competition assay (1). Both are excellent screening tools. However, affinity must be measured separately for each MHC-II allele. Humans express molecules encoded in four different MHC-II loci, denominated HLA-DRB1, DRB3/4/5, DP and DQ. Allelic variation is large, and most people are heterozygous at each locus, thus expressing up to 8 relevant MHC-II alleles. CD4 T cell responses strictly require that the antigenic peptide binds to the relevant MHC-II.
(§2) To identify peptides that could potentially be used in human patients, 30 peptides were screened for binding to 26 HLA alleles by competition assay.

A further assay deals with DRB1*09:01 (Homo sapiens, UniProt P01903+P01911, A100R/A103E/D57H/D86V/F55Y/F60I/F76Y/I96F/K127E/L162R/M171V/P40D/Q125H/Q99R/R33Q/R42F/S133A/S66N/T210M/V115G/W38K/Y107V/Y59G/Y89S). The description is as above.
Description: as §1, §2

Another assay addresses DPB1*02:01. As to the kind of experiment: Peptide binding to HLA-DP allele, competition assay. Also noted: species or system human. In outline: (§3)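 Each of 30 peptides was tested for binding to 26 HLA alleles. Binding affinity was read from a competition assay run individually for every allele.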
For another assay, the target named is DPB1*14:01. The description is as above. The arrangement: species or system human. A digest of the protocol:
as §3

The next assay addresses DPB1*05:01. The description is as above. Also noted: species or system human. In outline:
as §3

The next assay addresses DPB1*04:02. The description is as above. Also noted: species or system human. In outline: as §3
The target in a further assay is T1, DPB1*04:01 (Homo sapiens, UniProt P04440).
T1 sequence (P04440 30-258): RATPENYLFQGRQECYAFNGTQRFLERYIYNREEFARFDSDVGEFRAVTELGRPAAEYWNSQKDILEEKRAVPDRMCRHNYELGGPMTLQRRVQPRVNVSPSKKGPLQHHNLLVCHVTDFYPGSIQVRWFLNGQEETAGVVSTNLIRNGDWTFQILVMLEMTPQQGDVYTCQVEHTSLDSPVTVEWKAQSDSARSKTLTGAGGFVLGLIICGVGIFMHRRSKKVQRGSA
T1 sequence (P20036 29-260 partner): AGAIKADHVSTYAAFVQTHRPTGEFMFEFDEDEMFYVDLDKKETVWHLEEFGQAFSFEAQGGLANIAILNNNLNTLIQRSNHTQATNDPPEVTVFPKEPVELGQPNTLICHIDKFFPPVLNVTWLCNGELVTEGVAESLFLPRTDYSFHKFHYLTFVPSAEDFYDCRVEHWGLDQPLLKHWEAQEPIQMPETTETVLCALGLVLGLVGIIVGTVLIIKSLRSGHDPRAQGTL
The assay is described as above. In outline: as §3

Broadly, the pIC50 is the negative decadic logarithm of the IC50, by convention in mol/L. Read a low pIC50 as a large IC50.

pIC50: −log10 of the molar value.

Turning to `CC[C@H](C)[C@H](NC(=O)[C@H](C)NC(=O)[C@H](CCCCN)NC(=O)[C@H](Cc1ccccc1)NC(=O)[C@@H](NC(=O)[C@H](CCC(=O)O)NC(=O)[C@@H](N)CCC(N)=O)C(C)C)C(=O)N[C@@H](CCC(N)=O)C(=O)N[C@@H](CO)C(=O)N[C@@H](CC(C)C)C(=O)N[C@@H](CCCCN)C(=O)N[C@H](C(=O)N[C@H](C(=O)N[C@@H](CCC(=O)O)C(=O)N[C@H](C(=O)O)C(C)C)[C@@H](C)O)[C@@H](C)O` [Peptide 3563.0024], the pIC50 is 7.74 on DRB1*04:05; 7.34 at DRB1*09:01; 6.70 on DPB1*02:01; 5.75 at DPB1*14:01; 6.43 on DPB1*05:01; 7.03 on DPB1*04:02. For the same molecule, the negative-log IC50 (pIC50) at DPB1*04:01 was 7.80.
